Data taken from US12570956B2, “Efficient derivation of stable pluripotent bovine embryonic stem cells” (The Regents of the University of California, priority 2018, dated 2026).
Entries after “also recorded” stand apart in the source; their conditions may differ.

Tests used:
[1] = tested on: CTFR-bESCs; test: Feeder-free culture of CTFR-bESCs on Matrigel or Vitronectin; assay type: cell-based, bovine; conditions: medium supplemented with Activin-A (10 ng/mL), four passages
Protocol: FIG. 9. CTFR-bESCs can be cultured in feeder-free conditions. Brightfield images and immunostaining for pluripotency markers OCT4 and SOX2 of CTFR-bESCs cultured for four passages on mouse embryonic fibroblast (MEF) feeder (Control) or different extracellular matrices (Matrigel or Vitronectin) conditions, with or without the supplementation of Activin-A (10 ng/mL). Control: inactivated MEFs.
Culturing CTFR-bESCs in absence of feeder cells lead to cellular differentiation after a few passages.

[2] = tested on: bovine blastocyst; conditions: added during in vitro pre-implantation development; cited from earlier work
[3] = tested on: CTFR-bESCs; test: Routine maintenance and passaging of CTFR-bESCs; assay type: cell-based, bovine; conditions: Y-27632, 10 μM
Protocol: (§1) Once established, CTFR-bESC lines were grown at 37° C. and 5% CO2 on wells containing MEF and passaged every 4-5 days at a 1:10 split ratio. To increase cell survival, optionally, ROCK inhibitor (Y-27632, 10 μM) was added to the wells 1 h prior to passage and was also added to the newly prepared wells containing MEF and fresh culture media medium during 24 hrs. Media change was done daily between passages. ROCK inhibitor is dispensable for routine maintenance and passaging of CTFR-bESCs.

[4] = tested on: bovine blastocysts; test: Derivation of CTFR-bESC lines from plated blastocysts/ICMs; assay type: cell-based; conditions: IWR1 not present in the culture medium
Protocol: CTFR-bESCs derivation efficiency was measured as the percentage of embryos successfully establishing a CTFR-bESC line at passage 3 over the total number of embryos seeded. To optimize the CTFR-bESCs derivation efficiency, Applicants evaluated three different plating methods: whole blastocyst, mechanical isolation of the ICM by microdissection, and isolation of the ICM by immunosurgery. […] The initial outgrowths from the three methods were slightly different. The immunosurgery-derived outgrowths were smaller and more homogeneous in cell morphology than those from the other two methods.
Individual whole blastocysts or isolated ICMs were placed in separate wells of a 12-well dish seeded with a monolayer of gamma-irradiated mouse embryonic fibroblasts (MEF) and cultured in CTFR medium: a custom mTeSR-like basal medium (completely devoid of growth factors FGF2 and TGFβ) containing low fatty acid BSA (MP Biomedicals NZ), similar to basal medium in the published recipe([…]), and incubated at 37° C. and 5% CO2.
Thereafter, the media was changed daily. Outgrowths (after 6-7 days in culture) were dissociated and passaged using TrypLE (Gibco, 12563011) and re-seeded in the presence of Rho Kinase (ROCK) inhibitor (Y-27632, 10 μM) onto newly prepared wells containing MEF and fresh medium (FIG. 1).

[5] = tested on: bovine embryonic stem cells; test: Immunostaining of pluripotency markers in bESCs grown with or without IWR1; assay type: cell-based; conditions: withdrawal of IWR1 from the culture media; four passages
Protocol: FIG. 3: Inhibition of the canonical Wnt-signaling pathway is a requirement for self-renewal of pluripotent CTFR-bESCs. Immunostaining of the core pluripotency markers POU5F1 and SOX2 in bovine embryonic stem cells grown in medium supplemented with or devoid of IWR1 (+IWR1 and −IWR1, respectively). Cells were grown for four passages in the two conditions before immunofluorescence analysis. Scale bar 100 μm.
Individual whole blastocysts or isolated ICMs were placed in separate wells of a 12-well dish seeded with a monolayer of gamma-irradiated mouse embryonic fibroblasts (MEF) and cultured in CTFR medium: a custom mTeSR-like basal medium (completely devoid of growth factors FGF2 and TGFβ) containing low fatty acid BSA (MP Biomedicals NZ), similar to basal medium in the published recipe(45) supplemented with 20 ng/ml human FGF2 and 2.5 μM IWR1 (CTFR), and incubated at 37° C. and 5% CO2.
as §1, with “CTFR-bESCs. […]” for “CTFR-bESCs.”

[6] = tested on: bovine embryos; conditions: in vitro treatment from day 5 to day 7 after fertilization; cited from earlier work

Molecule: Activin-A: culture supplement used with an organic matrix to replace feeder cells
- propagation and pluripotency marker expression (OCT4, SOX2) without feeder cells [1]: allowed the propagation of the cells for multiple passages while maintaining expression of pluripotency markers; also recorded: maintained expression of pluripotency markers and a morphology consistent with CTFR-bESC

Molecule: COc1cccc(-c2cc(NCc3ccc4c(c3)OCO4)nc(N)n2)c1 [AMBMP, 2-amino-4-(3,4-(methylenedioxy)benzylamino)-6-(3-methoxyphenyl)pyrimidine]
- bovine blastocyst development [2]: detrimental effects
- total number of cells in the ICM [2]: reduces

Molecule: C[C@@H](N)[C@H]1CC[C@H](C(=O)Nc2ccncc2)CC1 [Y-27632]
- need for ROCK inhibitor in maintenance and passaging [3]: dispensable

Molecule: O=C(Nc1cccc2cccnc12)c1ccc(N2C(=O)[C@@H]3[C@H](C2=O)[C@@H]2C=C[C@H]3C2)cc1 [IWR1]
- establishment of bESC line [4]: no bESC lines could be established
- pluripotency marker expression (POU5F1, SOX2) [5]: loss of pluripotency marker expression

B1: DKK1: protein inhibitor of the canonical WNT-signaling pathway, naturally secreted by the female reproductive tract (protein, UniProt O94907 32-266, looked up)
Dickkopf-related protein 1: TLNSVLNSNAIKNLPPPLGGAAGHPGSAVSAAPGILYPGGNKYQTIDNYQPYPCAEDEECGTDEYCASPTRGGDAGVQICLACRKRRKRCMRHAMCCPGNYCKNGICVSSDQNHFRGEIEETITESFGNDHSTLDGYSRRTTLSSKMYHTKGQEGSVCLRSSDCASGLCCARHFWSKICKPVLKEGQVCTKHRRKGSHGLEIFQRCYCGEGLSCRIQKDHHQASNSSRLHTCQRH
- embryo survival after transfer to recipients [6]: significantly improve
